Results reported in US9056081B2, “Compositions for treating pseudomonas infection” (Universitätsklinikum Hamburg-Eppendorf, priority 2009, dated 2015).
“Also recorded” adds a separate entry of the source. Where two headings read alike, the source gives them in different places. Ends that are not written are not given here.

Key:
[1] = system: human airway cilia; test: Ciliary beat frequency (CBF) of human nasal mucosa, substances alone without lectin; type: cell-based; details: no lectin, over 24 h; for effect on the ciliary beat frequency (CBF), monosaccharide alone: 0.2 M monosaccharide
Protocol: The influence of monosaccharides and several peptides (obtained from Centre for Molecular Neurobiology, Hamburg, Germany) alone and in combination with PA-IL or PA-IIL on CBF was also investigated. The monosaccharides (0.2 M) and peptides (0.968 mM) were pre-incubated with 10 μg/ml PA-IL and 10 μg/ml PA-IIL, respectively, for 30 min at room temperature, at which they were agitated the for whole time and then added to the medium and the CBF was monitored over a 24 h period. […]

[2] = target: PA-IL (Pseudomonas aeruginosa, UniProt Q05097); test: cell-based; type: cell-based
Sequence of PA-IL (Q05097 whole entry): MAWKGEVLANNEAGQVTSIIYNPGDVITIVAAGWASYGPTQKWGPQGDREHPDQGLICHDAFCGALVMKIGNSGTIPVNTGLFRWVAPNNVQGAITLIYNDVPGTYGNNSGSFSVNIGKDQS
Protocol: (§1) Experiments were carried out on human nasal conchae, obtained during routine surgery from the ENT Hospital of the University Medical Center Hamburg-Eppendorf, Hamburg, Germany. For the measurement of CBF, small pieces of nasal mucosa were punched out of the nasal conchae by a special biopsy punch (Stiefel Laboratorium GmbH, Offenbach, Germany) (4-6 pieces per nasal conchae) and transferred to Petri dishes (Greiner Bio-One, Kremsmünster, Austria) containing RPMI-1640 and L-Glutamine medium (Gibco, Karlsruhe, Germany) supplemented with 10% fetal calf serum (Gibco, Karlsruhe, Germany), 1% Penicillin-Streptomycin (10 000 U/ml, Gibco, Karlsruhe, Germany) and 0.9% Amphotericin B (250 UG/ml, Gibco, Karlsruhe, Germany) as a fungicide. The specimens were maintained under standard cell culture conditions at 37° C. in 5% CO2 for up to two weeks.
(§2) The aim of this experiment was to compare the efficiency of different sugar solutions and peptides to block PA-IL and PA-IIL binding to cilia in tissue sections and in vitro airway cultures by measuring their ciliary beat frequency (CBF). Actively beating ciliated cells were viewed trough phase-contrast optics of a Leica DM IRB HC inverted microscope (Leica, Bensheim, Germany) placed on a Micro-g vibration isolation table (TMC, Peabody, Mass.). During the experiments, the cultured tissue samples were maintained at a constant temperature (35±0.5° C.) by a thermostatically controlled heated stage. The signals were measured and analysed by a computer system incorporating a special purpose MPV-CBF software (Software-Entwicklung Radmann, Solms, Germany). The CBF was calculated by collecting data from 512 readings (10 s) and by performing Fourier analysis (Mewe et al. 2005). Five of these Fourier transforms taken per nasal conchae piece were measured.
The influence of monosaccharides and several peptides (obtained from Centre for Molecular Neurobiology, Hamburg, Germany) alone and in combination with PA-IL or PA-IIL on CBF was also investigated. The monosaccharides ([…]) were pre-incubated with 10 μg/ml PA-IL and 10 μg/ml PA-IIL, respectively, for 30 min at room temperature, at which they were agitated the for whole time and then added to the medium and the CBF was monitored over a 24 h period. Measurement was carried out after 0, 1, 2, 3, 5, 8, 24 h incubation. Negative controls were maintained in medium with no additions made. Positive controls were maintained in medium with PA-IL or PA-IIL, respectively.
In CBF analysis, the influence of monosaccharides (D-galactose and L(−)-fucose) and the HNK-1 mimetic peptide pHNK-1 alone and in combination with PA-IL on CBF was investigated.

[3] = target: T1, PA-IIL (Pseudomonas aeruginosa, UniProt Q9HYN5); test: cell-based; type: cell-based
T1 sequence (Q9HYN5 entry or part of it): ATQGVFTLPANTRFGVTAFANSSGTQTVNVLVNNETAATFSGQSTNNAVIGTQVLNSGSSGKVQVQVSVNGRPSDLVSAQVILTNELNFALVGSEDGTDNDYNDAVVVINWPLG
Protocol: as §1, §2
(§3) The influence of monosaccharides and several peptides (obtained from Centre for Molecular Neurobiology, Hamburg, Germany) alone and in combination with PA-IL or PA-IIL on CBF was also investigated. The monosaccharides (0.2 M) and peptides (0.968 mM) were pre-incubated with 10 μg/ml PA-IL and 10 μg/ml PA-IIL, respectively, for 30 min at room temperature, at which they were agitated the for whole time and then added to the medium and the CBF was monitored over a 24 h period. Measurement was carried out after 0, 1, 2, 3, 5, 8, 24 h incubation. Negative controls were maintained in medium with no additions made. Positive controls were maintained in medium with PA-IL or PA-IIL, respectively.
For CBF analysis monosaccharides (D-galactose and L(−)-fucose) and peptides were pre-incubated with PA-IIL and the CBF was determined.

[4] = system: PA-IL and PA-IIL; test: CBF assay: simultaneous application of PA-IL and PA-IIL; type: cell-based, Pseudomonas aeruginosa
Protocol: Experiments were carried out on human nasal conchae, obtained during routine surgery from the ENT Hospital of the University Medical Center Hamburg-Eppendorf, Hamburg, Germany. […]
The aim of this experiment was to compare the efficiency of different sugar solutions and peptides to block PA-IL and PA-IIL binding to cilia in tissue sections and in vitro airway cultures by measuring their ciliary beat frequency (CBF). […] The signals were measured and analysed by a computer system incorporating a special purpose MPV-CBF software (Software-Entwicklung Radmann, Solms, Germany). The CBF was calculated by collecting data from 512 readings (10 s) and by performing Fourier analysis (Mewe et al. 2005). Five of these Fourier transforms taken per nasal conchae piece were measured.
as §3, with “Measurement was carried out after 0, 1, 2, 3, 5, 8, 24 h incubation. Negative controls were maintained in medium with no additions made. Positive controls were maintained in medium with PA-IL or PA-IIL, respectively.” left out

[5] = target: T1, PA-IIL; type: cell-based; details: 0.121-0.484 mM peptide co-incubated with 10 μg/ml PA-IIL, 24 h
[6] = Storage stability of monosaccharide solutions (data not shown); type: physicochemical; details: stored at room temperature or at 4° C. dissolved in an aqueous solution
[7] = 0.121 mM peptide co-incubated with 10 μg/ml PA-IL, 24 h
[8] = 0.242 mM peptide co-incubated with 10 μg/ml PA-IL, 24 h
[9] = 0.2 M monosaccharide co-incubated with 10 μg/ml PA-IL, 24 h
[10] = 0.2 M monosaccharide co-incubated with 10 μg/ml PA-IIL, 24 h

## FLHTRLFV [pHNK-1]
[1]; 0.968 mM peptide
  effect on the ciliary beat frequency (CBF), peptide alone: had no effect on the CBF
[2]
  IC50: 484 µM
  effect on the CBF-decreasing effect of PA-IL: blocked the CBF-decreasing effect of PA-IL; also recorded: reduced the CBF-decreasing effect of the PA lectin; also recorded: could be reduced
[2]; [7]
  effect on the CBF-decreasing effect of PA-IL: resulted in a continuous decrease of the CBF within 24 h
[2]; [8]
  effect on the CBF-decreasing effect of PA-IL: resulted in a continuous decrease of the CBF within 24 h
[3]
  IC50: 968 µM
  effect on the CBF-decreasing effect of PA-IIL: inhibited the CBF-decreasing effect of PA-IIL; also recorded: reduced the CBF-decreasing effect of the PA lectin; also recorded: blocked
[4]
  effect on the decrease of CBF after simultaneous application of PA-IL and PA-IIL: caused an inhibition of lectin induced suppression of CBF; also recorded: could be inhibited
[5]
  effect on the CBF-decreasing effect of PA-IIL: resulted in a continuous decrease of the CBF within 24 h

## O=C[C@H](O)[C@@H](O)[C@@H](O)[C@H](O)CO [D-galactose, reference compound]
[1]
  effect on the ciliary beat frequency (CBF), monosaccharide alone: had no effect on the CBF
[2]; [9]
  effect on the CBF-decreasing effect of PA-IL: reduced the CBF-decreasing effect of the PA lectin; also recorded: could be effectively reduced
[3]; [10]
  effect on the CBF-decreasing effect of PA-IIL: no inhibition could be achieved; also recorded: resulted in a decline of the CBF within 24 h; also recorded: did not inhibit
[6]
  stability and inhibitory potency of the solution on storage: not stable and loose their inhibitory potency

## C[C@H](O)[C@@H](O)[C@@H](O)[C@H](O)C=O [L(−)-fucose, reference compound]
[1]
  effect on the ciliary beat frequency (CBF), monosaccharide alone: had no effect on the CBF
[2]; [9]
  effect on the CBF-decreasing effect of PA-IL: resulted in a continuous decrease of the CBF within 24 h; also recorded: did not inhibit
[3]; [10]
  effect on the CBF-decreasing effect of PA-IIL: could be reduced; also recorded: reduced the CBF-decreasing effect of the PA lectin
[6]
  stability and inhibitory potency of the solution on storage: not stable and loose their inhibitory potency

## TVFHFRLL [sHNK-1]
[2]
  effect on the CBF-decreasing effect of PA-IL: also reduced the CBF-decreasing effect of PA-IL; also recorded: reduced the CBF-decreasing effect of the PA lectin; also recorded: resulted in a continuous decrease of the CBF within 24 h
[2]; [7]
  effect on the CBF-decreasing effect of PA-IL: resulted in a continuous decrease of the CBF within 24 h
[2]; [8]
  effect on the CBF-decreasing effect of PA-IL: resulted in a continuous decrease of the CBF within 24 h
[2]; listed as scrambled version of the peptide pHNK-1
  effect on the CBF-decreasing effect of PA-IL: also reduced the CBF-decreasing effect of PA-IL
[3]
  effect on the CBF-decreasing effect of PA-IIL: resulted in a continuous decrease of the CBF within 24 h; also recorded: none of the other tested peptides (sHNK-1, pLeX, sLeX) had any consequence; also recorded: had no effect
